Biological target: T1, human S1P1 receptor (Homo sapiens, UniProt P21453)
T1 construct: expressed in transfected cells; membranes used
Assay: GTP γ35S binding assay for S1P1 activity
Assay type: biochemical
Details: activity potency from GTP γ35S binding; membranes, test compounds 0.08 to 5,000 nM, 30 min at 25° C.
Method: Compounds were synthesized and tested for S1P1 activity using the GTP γ^35S binding assay. These compounds may be assessed for their ability to activate or block activation of the human S1P1 receptor in cells stably expressing the S1P1 receptor.
GTP γ^35S binding was measured in the medium containing (mM) HEPES 25, pH 7.4, MgCl2 10, NaCl 100, dithitothreitol 0.5, digitonin 0.003%, 0.2 nM GTP γ^35S, and 5 μg membrane protein in a volume of 150 μl. Test compounds were included in the concentration range from 0.08 to 5,000 nM unless indicated otherwise. Membranes were incubated with 100 μM 5′-adenylylimmidodiphosphate for 30 min, and subsequently with 10 μM GDP for 10 min on ice. Drug solutions and membrane were mixed, and then reactions were initiated by adding GTP γ^35S and continued for 30 min at 25° C. Reaction mixtures were filtered over Whatman GF/B filters under vacuum, and washed three times with 3 mL of ice-cold buffer (HEPES 25, pH7.4, MgCl2 10 and NaCl-100). Filters were dried and mixed with scintillant, and counted for ^35S activity using a β-counter. Agonist-induced GTP γ^35S binding was obtained by subtracting that in the absence of agonist. Binding data were analyzed using a non-linear regression method. In case of antagonist assay, the reaction mixture contained 10 nM S1P in the presence of test antagonist at concentrations ranging from 0.08 to 5000 nM.

T1 sequence (P21453 whole entry): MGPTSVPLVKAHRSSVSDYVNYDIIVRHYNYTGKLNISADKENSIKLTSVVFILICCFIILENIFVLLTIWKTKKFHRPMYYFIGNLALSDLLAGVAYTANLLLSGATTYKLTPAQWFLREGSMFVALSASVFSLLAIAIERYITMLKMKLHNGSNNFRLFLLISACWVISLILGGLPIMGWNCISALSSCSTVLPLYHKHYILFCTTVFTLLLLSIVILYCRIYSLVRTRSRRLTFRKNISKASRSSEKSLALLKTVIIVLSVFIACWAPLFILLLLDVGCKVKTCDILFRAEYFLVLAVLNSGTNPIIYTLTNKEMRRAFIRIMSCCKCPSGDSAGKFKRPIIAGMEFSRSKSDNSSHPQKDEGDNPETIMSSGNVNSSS

| SMILES | EC50 |
| --- | --- |
| CCc1ccc(OC(c2cccc(Cl)c2)c2nc(-c3ccc(CN4CC(C(=O)O)C4)cc3)no2)cc1 (stereo not drawn) [Compound 1, 1-(4-{5-[(3-chlorophenyl)(4-ethylphenoxy)methyl]-1,2,4-oxadiazol-3-yl}benzyl)azetidine-3-carboxylic acid] | 1060 nM |
| Cc1ccc(OC(c2cccc(Cl)c2)c2nc(-c3ccc(CN4CC(C(=O)O)C4)cc3)no2)cc1C (stereo not drawn) [Compound 2, 1-(4-{5-[(3-chlorophenyl)(3,4-dimethylphenoxy)methyl]-1,2,4-oxadiazol-3-yl}benzyl)azetidine-3-carboxylic acid] | 598 nM |
| CCCc1ccc(OC(c2cccc(Cl)c2)c2nc(-c3ccc(CN4CC(C(=O)O)C4)cc3)no2)cc1 (stereo not drawn) [Compound 3, 1-(4-{5-[(3-chlorophenyl)(4-propylphenoxy)methyl]-1,2,4-oxadiazol-3-yl}benzyl)azetidine-3-carboxylic acid] | 1100 nM |
| Cc1ccc(OC(c2nc(-c3ccc(CN4CC(C(=O)O)C4)cc3)no2)c2ccccc2Cl)cc1C (stereo not drawn) [Compound 4, 1-(4-{5-[(2-chlorophenyl)(3,4-dimethylphenoxy)methyl]-1,2,4-oxadiazol-3-yl}benzyl)azetidine-3-carboxylic acid] | 911 nM |
| Cc1ccc(NC(c2cccc(Cl)c2)c2nc(-c3ccc(CN4CC(C(=O)O)C4)cc3)no2)cc1C (stereo not drawn) [Compound 6, 1-[4-(5-{(3-chlorophenyl)[(3,4-dimethylphenyl)amino]methyl}-1,2,4-oxadiazol-3-yl)benzyl]azetidine-3-carboxylic acid] | 312 nM |
| O=C(NCc1ccc2c(c1)OCO2)c1cc(-c2ccccc2)c(N2CCOCC2)s1 [N-(1,3-benzodioxol-5-ylmethyl)-5-morpholin-4-yl-4-phenylthiophene-2-carboxamide] | 336 nM |

Reference: patent US8906899B2, “Azetidine derivatives as sphingosine 1-phosphate (S1P) receptor modulators” (Allergan, Inc., priority 2010, dated 2014)
